Experimental data: patent publication US20170007615A1, “Antibacterial Compounds” (priority 2014, published 2017)
Values after ≈ are worked out from the molar mass of the structure shown. Read-outs that look alike come from different tables or passages of the source. Positions of bridges follow the written chain, without caps; N, C: chain ends. Non-standard residues stand in square brackets, D forms with d. Residues, ends and D or L forms follow the SMILES beside them. *: point of attachment. Ileψ(thiazoline)Cys = CC[C@H](C)[C@H](N)C1=N[C@H](C(=O)*)CS1; dOrn = NCCC[C@@H](N)C(=O)O

Columns and labels:
E. coli (ATCC 25922) [1] = experiment: microbe, parasite or virus in culture; details: Escherichia coli
E. coli (ATCC 25922) [2] = details: for MIC of Compound (μg/ml) in the presence of PMBN (128 μg/ml): Table 1, (b) No effect; for MIC of Compound (μg/ml) in the presence of PMBN (32 μg/ml): (b) No significant effect
[3] = ATCC25922, read-out: MIC Compound alone, Table 1
[4] = ATCC25922, read-out: MIC Compound alone, Table 12

Compound | MIC (E. coli (ATCC 25922) [1]; [3]) [µg/mL] | MIC of Compound (μg/ml) in the presence of PMBN (128 μg/ml) (E. coli (ATCC 25922) [2]) | MIC of Compound (μg/ml) in the presence of PMBN (32 μg/ml) (E. coli (ATCC 25922) [2]; Table 12) | MIC (E. coli (ATCC 25922) [1]; [4]) [µg/mL] | other results
CCNC(=O)Nc1nc2cc(-c3cc(C)n(Cc4cccc(C)n4)c(=O)c3)cc(-c3ccccn3)c2s1 [Compound A-2, 1-Ethyl-3-[5-[2-methyl-1-[(6-methyl-2-pyridyl)methyl]-6-oxo-4-pyridyl]-7-(2-pyridyl)-1,3-benzothiazol-2-yl]urea] | > 64 | <=.12 μg/ml |  |  | 
CC[C@H](C)[C@H](N)C1=N[C@H](C(=O)N[C@@H](CC(C)C)C(=O)N[C@H](CCC(=O)O)C(=O)N[C@H](C(=O)N[C@H]2CCCCNC(=O)[C@H](CC(N)=O)NC(=O)[C@@H](CC(=O)O)NC(=O)[C@H](Cc3cnc[nH]3)NC(=O)[C@@H](Cc3ccccc3)NC(=O)[C@H]([C@@H](C)CC)NC(=O)[C@@H](CCCN)NC2=O)[C@@H](C)CC)CS1 [Bacitracin, reference compound] ({Ileψ(thiazoline)Cys}-L[dE]IK[dOrn]I[dF]H[dD]N; lactam 4-C) |  |  | >64^(b) μg/ml |  | MIC Compound alone (E. coli (ATCC 25922) [2]; ATCC 25922): >64 µg/mL
CCNC(=O)Nc1nc2cc(-c3cnc(NS(=O)(=O)C(C)(C)C)nc3)cc(-c3cnc(N(C)C)nc3)c2s1 [Compound A-18, 1-[5-[2-(tert-butylsulfonylamino)pyrimidin-5-yl]-7-[2-(dimethylamino)pyrimidin-5-yl]-1,3-benzothiazol-2-yl]-3-ethyl-urea] | > 64 | 0.12 µg/mL |  |  | 
CCNC(=O)Nc1nc2cc(-c3cnc(C(C)(O)CO)nc3)cc(C)c2s1 (stereo not drawn) [Compound A-9, 1-[5-[2-(1,2-Dihydroxy-1-methyl-ethyl)pyrimidin-5-yl]-7-methyl-1,3-benzothiazol-2-yl]-3-ethyl-urea] | 32 (≈ 82.6 µM) | 2 µg/mL |  |  | 
CCNC(=O)Nc1nc2cc(-c3cnc(NS(=O)(=O)CC(=O)OC)nc3)cc(-c3ccc(C)cn3)c2s1 [Compound A-16, Methyl 2-[[5-[2-(ethylcarbamoylamino)-7-(5-methyl-2-pyridyl)-1,3-benzothiazol-5-yl]pyrimidin-2-yl]sulfamoyl]acetate] | > 64 | 0.25 µg/mL |  |  | 
Gentamicin [reference compound] |  |  | 8^(b) μg/ml |  | MIC Compound alone (E. coli (ATCC 25922) [2]; Table 12): 8 µg/mL
Polymyxin B [PMB, reference compound] |  |  |  |  | MIC PMB alone (E. coli (ATCC 25922) [2]; Table 3): 1 µg/mL
CCNC(=O)Nc1nc2cc(-c3cnc(NC(=O)OC)nc3)cc(-c3ccccn3)c2s1 [Compound A-5, Methyl N-[5-[2-(ethylcarbamoylamino)-7-(2-pyridyl)-1,3-benzothiazol-5-yl]pyrimidin-2-yl]carbamate] | > 64 | 0.008 µg/mL |  |  | 
CC1(C)S[C@@H]2[C@H](NC(=O)[C@H](N)c3ccc(O)cc3)C(=O)N2[C@H]1C(=O)O [Amoxicillin, reference compound] |  |  | 8 µg/mL | 32 (≈ 87.6 µM) | 
CO/N=C(\C(=O)N[C@@H]1C(=O)N2C(C(=O)O)=C(CSc3nc(=O)c(=O)[nH]n3C)CS[C@H]12)c1csc(N)n1 [Ceftriaxone, reference compound] |  |  | 0.06^(b) μg/ml | 0.06 (≈ 0.108 µM) | 
C=CCS(=O)(=O)Nc1ncc(-c2cc(-c3ccc(C)cn3)c3sc(NC(=O)NCC)nc3c2)cn1 [Compound A-17, 1-[5-[2-(allylsulfonylamino)pyrimidin-5-yl]-7-(5-methyl-2-pyridyl)-1,3-benzothiazol-2-yl]-3-ethyl-urea] | 2 (≈ 3.92 µM) | 0.03 µg/mL |  |  | 
CC1(C)S[C@@H]2[C@H](NC(=O)C(C(=O)O)c3ccccc3)C(=O)N2[C@H]1C(=O)O (stereo partly drawn) [Carbenicillin, reference compound] |  |  | 32^(b) μg/ml | 64 (≈ 169 µM) | 
CN(C)c1cc(NC(=O)CNC(C)(C)C)c(O)c2c1C[C@H]1C[C@H]3[C@H](N(C)C)C(O)=C(C(N)=O)C(=O)[C@@]3(O)C(O)=C1C2=O [Tigecyclin, reference compound] |  |  | ≦0.25^(b) μg/ml |  | MIC Compound alone (E. coli (ATCC 25922) [2]; Table 12): ≦0.25 μg/ml
CN(C)[C@@H]1C(O)=C(C(N)=O)C(=O)[C@@]2(O)C(O)=C3C(=O)c4c(O)cccc4[C@@](C)(O)[C@H]3C[C@@H]12 [Tetracycline, reference compound] |  |  | 1^(b) μg/ml |  | MIC (E. coli (ATCC 25922) [1]; ATCC25922, read-out: MIC Compound alone): 1 µg/mL (≈ 2.25 µM)
CCNC(=O)Nc1nc2cc(-c3cnc(C(C)(O)CO)nc3)ccc2s1 (stereo not drawn) [Compound A-7, 1-[5-[2-(1,2-Dihydroxy-1-methyl-ethyl)pyrimidin-5-yl]-1,3-benzothiazol-2-yl]-3-ethyl-urea] | 32 (≈ 85.7 µM) | 4 µg/mL |  |  | 
CCNC(=O)Nc1nc2cc(-c3cnc(NC(=O)N4CCCC4)nc3)cc(-c3cc(CN4CCOCC4)ccn3)c2s1 [Compound A-6, N-[5-[2-(Ethylcarbamoylamino)-7-[4-(morpholinomethyl)-2-pyridyl]-1,3-benzothiazol-5-yl]pyrimidin-2-yl]pyrrolidine-1-carboxamide] | > 64 | 0.25 µg/mL |  |  | 
CC(C)(O/N=C(\C(=O)N[C@@H]1C(=O)N2C(C(=O)[O-])=C(C[n+]3ccccc3)CS[C@H]12)c1csc(N)n1)C(=O)O [Ceftazidime, reference compound] |  |  | 0.15 µg/mL | 0.6 (≈ 1.1 µM) | 
CCNC(=O)Nc1nc2cc(-n3cnc(C)c3)cc(-c3ccccn3)c2s1 [Compound A-3, 1-Ethyl-3-[5-(4-methylimidazol-1-yl)-7-(2-pyridyl)-1,3-benzothiazol-2-yl]urea] | > 64 | <=1 μg/ml |  |  | MIC (E. coli (ATCC 25922) [1]; ATCC25922, read-out: MIC Compound alone, Table 2): > 64 µg/mL; MIC (E. coli (ATCC 25922) [1]; ATCC25922, read-out: MIC Compound alone, Table 3): > 64 µg/mL; MIC of Compound (μg/ml) in the presence of Colistin (1 μg/ml) (E. coli (ATCC 25922) [2]; Table 2, colistin sub-inhibitory): ≦1 μg/ml; MIC of Compound (μg/ml) in the presence of PMB (0.5 μg/ml) (E. coli (ATCC 25922) [2]; Table 3, PMB sub-inhibitory): ≦1 μg/ml
CCNC(=O)Nc1nc2cc(-c3cc(C)n(C(C)c4ccc(C)nc4)c(=O)c3)cc(-c3ccccn3)c2s1 (stereo not drawn) [Compound A-4, 1-Ethyl-3-[5-[2-methyl-1-[1-(6-methyl-3-pyridyl)ethyl]-6-oxo-4-pyridyl]-7-(2-pyridyl)-1,3-benzothiazol-2-yl]urea] | > 64 | 0.5 µg/mL |  |  | 

The next lines start with results.

MIC (E. coli (ATCC 25922) [1]; [3]) [µg/mL] | MIC of Compound (μg/ml) in the presence of PMBN (128 μg/ml) (E. coli (ATCC 25922) [2]) | MIC of Compound (μg/ml) in the presence of PMBN (32 μg/ml) (E. coli (ATCC 25922) [2]; Table 12) | MIC (E. coli (ATCC 25922) [1]; [4]) [µg/mL] | Compound | other results
> 64 | 2 µg/mL |  |  | CCNC(=O)Nc1nc2c(-c3ccc(C)cn3)cc(-c3cnc(NS(=O)(=O)C(C)(C)C)nc3)cn2n1 [Compound A-101, 1-[6-[2-(tert-butylsulfonylamino)pyrimidin-5-yl]-8-(5-methyl-2-pyridyl)-[1,2,4]triazolo[1,5-a]pyridin-2-yl]-3-ethyl-urea] | 
> 64 | 8 µg/mL |  |  | CCNC(=O)Nc1nc2cc(-c3cccnc3)ccc2s1 [Example 1 Compound VI(a) (WO2009/074812), 1-ethyl-3-(5-pyridin-3-yl-benzothiazol-2-yl)-urea] | 
 |  | 2^(b) μg/ml | 0.5 (≈ 1.72 µM) | COc1cc(Cc2cnc(N)nc2N)cc(OC)c1OC [Trimethoprim, reference compound] | 
 |  | 0.008^(b) μg/ml | 0.008 (≈ 0.0221 µM) | C[C@H]1COc2c(N3CCN(C)CC3)c(F)cc3c(=O)c(C(=O)O)cn1c23 [Levofloxacin, reference compound] | 
1 (≈ 2.55 µM) | 0.06 µg/mL |  |  | CNc1cc(F)cc2c1[nH]c1nc(Oc3ccc(C)nc3)nc(N3CCCC3)c12 [Compound A-23, 6-Fluoro-N-methyl-2-[(6-methyl-3-pyridyl)oxy]-4-pyrrolidin-1-yl-9H-pyrimido[4,5-b]indol-8-amine, reference compound] | 
> 64 | 0.25 µg/mL |  |  | CCNC(=O)Nc1nc2cc(-c3cccnc3)cc(-c3ccccn3)c2s1 [Example 163 (WO2007/148093)] | 
 |  | 0.03^(b) μg/ml | 0.06 (≈ 0.187 µM) | CCn1cc(C(=O)O)c(=O)c2cc(F)c(N3CCNCC3)nc21 [Enoxacin, reference compound] | 
 |  | 0.5^(b) μg/ml | 0.5 (≈ 1.67 µM) | C[C@@H](O)[C@H]1C(=O)N2C(C(=O)O)=C(SCCN=CN)C[C@H]12 [Imipenem, reference compound] | 
8 (≈ 23.6 µM) | 0.5 µg/mL |  |  | CCNC(=O)Nc1nc2cc(-c3cccnc3)cc(C(=O)OC)c2[nH]1 [Compound A-22, Methyl 2-(ethylcarbamoylamino)-6-(3-pyridyl)-3H-benzimidazole-4-carboxylate, reference compound] | 
> 64 | 2 µg/mL |  |  | CC(C)(C)S(=O)(=O)Nc1ncc(-c2cc(Br)c3sc(N)nc3c2)cn1 [Compound A-102, N-[5-(2-amino-7-bromo-1,3-benzothiazol-5-yl)pyrimidin-2-yl]-2-methyl-propane-2-sulfonamide] | 
> 64 | 32 µg/mL |  |  | CCNC(=O)Nc1nc2cc(-c3cccnc3)cc(-c3ncccc3N)c2s1 [Example 94 (WO2007/148093)] | 
0.03 (≈ 0.083 µM) | 0.03^(b) μg/ml | 0.03^(b) μg/ml | 0.03 (≈ 0.083 µM) | CC1COc2c(N3CCN(C)CC3)c(F)cc3c(=O)c(C(=O)O)cn1c23 (stereo not drawn) [Ofloxacin, reference compound] | effect of the presence of PMBN on activity compared to compound alone (E. coli (ATCC 25922) [2]; Table 1 experiment): no effect
> 64 | <=.12 μg/ml |  |  | CCNC(=O)Nc1nc2cc(-c3cnc(CNS(C)(=O)=O)nc3)cc(-c3ccc(C)cn3)c2s1 [Compound A-19, 1-ethyl-3-[5-[2-(methanesulfonamidomethyl)pyrimidin-5-yl]-7-(5-methyl-2-pyridyl)-1,3-benzothiazol-2-yl]urea] | 
 |  | 0.5^(b) μg/ml | 0.5 (≈ 1.3 µM) | C[C@@H](O)[C@H]1C(=O)N2C(C(=O)O)=C(S[C@@H]3CN[C@H](C(=O)N(C)C)C3)[C@H](C)[C@H]12 [Meropenem, reference compound] | 
